Data as given in ChEMBL document CHEMBL3706496, “Therapeutic Drugs” (1999).
One block for each molecule: values may come before it.

Assays:
Format in all cases: ADME, organism-based
[1] = Percentage of administered dose recovered as unchanged drug in urine within 48 h of drug administration; set-up: dosed compound id 2.58283e+06, dosed compound name Mitoxantrone; details: human, read-out: Compound recovery
[2] = Percentage of administered dose recovered as dicarboxylic acid derivative of mitoxantrone in urine within 48 h of drug administration; details: human, in vivo
[3] = Percentage of administered dose recovered as unchanged drug in urine after intravenous administration; set-up: dosed compound id 2.58283e+06, dosed compound name Idarubicin, route intravenous; details: human, read-out: Compound recovery
[4] = Percentage of administered dose recovered as unchanged drug in urine after oral administration; set-up: dosed compound id 2.58283e+06, dosed compound name Idarubicin, route oral; details: human, read-out: Compound recovery
[5] = Percentage of administered dose recovered as monocarboxylic acid derivative of mitoxantrone in urine within 48 h of drug administration; set-up: dosed compound id 2.58283e+06, dosed compound name Mitoxantrone; details: human, in vivo
[6] = Percentage of administered dose recovered as idarubicinol in urine after intravenous administration; set-up: dosed compound id 2.58283e+06, dosed compound name Idarubicin, route intravenous; details: human, in vivo
[7] = Percentage of administered dose recovered as idarubicinol in urine after oral administration; set-up: dosed compound id 2.58283e+06, dosed compound name Idarubicin, route oral; details: human, in vivo

Compound: O=C1c2c(O)ccc(O)c2C(=O)c2c(NCCNCCO)ccc(NCCNCCO)c21 [MITOXANTRONE]
dose excreted at 48 h [1]: 4.4%

Compound: O=C(O)CNCCNc1ccc(NCCNCC(=O)O)c2c1C(=O)c1c(O)ccc(O)c1C2=O
Compound recovery [2]: 0.3%

dose excreted [3]: 2% | dose excreted [4]: 0.6%
Compound: CC(=O)[C@]1(O)Cc2c(O)c3c(c(O)c2[C@@H](O[C@H]2C[C@H](N)[C@H](O)[C@H](C)O2)C1)C(=O)c1ccccc1C3=O [IDARUBICIN]

Compound: O=C(O)CNCCNc1ccc(NCCNCCO)c2c1C(=O)c1c(O)ccc(O)c1C2=O
Compound recovery [5]: 0.5%

Compound recovery [6]: 15% | Compound recovery [7]: 5%
Compound: CC(O)[C@]1(O)Cc2c(O)c3c(c(O)c2[C@@H](O[C@H]2C[C@H](N)[C@H](O)[C@H](C)O2)C1)C(=O)c1ccccc1C3=O (some centres not stated)
